Measurements: US20250066350A1, “AROMATIC HETEROCYCLE-SUBSTITUTED COMPOUNDS, AND PREPARATION METHOD THEREFOR AND USE THEREOF” (Innovstone Therapeutics Limited, priority 2021, published 2025)

Legend:
[1] = molecular target: ATR enzyme (Homo sapiens (Human), UniProt Q13535); test: Inhibitory effect on ATR enzyme (HTRF, phospho-P53); assay type: biochemical; conditions: 90 minutes incubation, 150 nM ATP final; read-out: IC50 for ATR enzyme inhibition
In short: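 Recombinant ATR phosphorylating GST-tagged P53 with 150 nM ATP final (40 nM final P53), 10-point compound series from 2985.0 to 0.15 nM, 0.498% DMSO, 90 min at room temperature. Detection with anti-phospho-p53-Eu/anti-GST-d2 overnight at 4° C in dark; HTRF 665/612 ratio used to derive IC50.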

[2] = system: LoVo cells; test: LoVo cell proliferation experiment (CellTiter-Glo, intracellular ATP); assay type: cell-based; conditions: 96 h; LoVo human colon cancer cells, 4 days; read-out: IC50 for inhibition of LoVo cell proliferation
Description: The following method is used to evaluate the inhibitory effect of the compounds of the present invention on LoVo cell proliferation according to the IC50 values by means of detecting the intracellular ATP content. The experimental method is briefly described as follows:
1. LoVo, human colon cancer tumor cells (Co-bioer, CBP60032)
LoVo cells were cultured in F-12K medium containing 10% FBS and passaged 2 to 3 times a week at a split ratio of 1:3 or 1:5. During passage, the cells were trypsinized and transferred to a centrifuge tube. The tube was centrifuged at 1000 rpm for 5 minutes, the supernatant medium was discarded, and fresh medium was added to resuspend the cells. 100 μL of cell suspension at a density of 1.5×10^4 cells/mL was added to a 96-well cell culture plate, and 100 μL of complete medium only was added to the periphery wells of the 96-well plate. The culture plate was incubated in an incubator for 24 hours (37° C., 5% CO2).
The sample to be tested was diluted to 1 mM with DMSO, diluted 3-fold serially to 8 concentrations, and prepared to 200× dilution with cell culture medium. Blank and control wells were set. 5 μL of the solution containing the compound to be tested prepared in gradient concentrations was added to 95 μL of fresh medium. 100 μL of 1× culture medium containing the compound was added to the culture plate. The culture plate was incubated in an incubator for 4 days (37° C., 5% CO2). 50 μL of CellTiter-Glo reagent was added to each well of the 96-well cell culture plate, and the plate was placed at room temperature in the dark for 5-10 min. The chemiluminescent signal values were read in PHERAstar, and data were processed using GraphPad software.
The inhibitory effect of the compounds of the present invention on LoVo cell proliferation can be determined by the test described above, and the measured IC50 values are shown in Table 2.

[3] = system: SNU-601 cells; test: SNU-601 cell proliferation experiment (CellTiter-Glo, intracellular ATP); assay type: cell-based; conditions: 120 h; SNU-601 human gastric cancer cells, 5 days; read-out: IC50 for inhibition of SNU-601 cell proliferation
In short: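 Human gastric cancer cells in RPMI 1640/10% FBS plated and settled 24 h before adding compounds in a 10-point 3-fold series (2 mM DMSO top stock). Exposure 5 days at 37 °C, 5% CO2. Viability by CellTiter-Glo luminescence (ATP); IC50 from the curves.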

ATR enzyme, sequence (Q13535 whole entry): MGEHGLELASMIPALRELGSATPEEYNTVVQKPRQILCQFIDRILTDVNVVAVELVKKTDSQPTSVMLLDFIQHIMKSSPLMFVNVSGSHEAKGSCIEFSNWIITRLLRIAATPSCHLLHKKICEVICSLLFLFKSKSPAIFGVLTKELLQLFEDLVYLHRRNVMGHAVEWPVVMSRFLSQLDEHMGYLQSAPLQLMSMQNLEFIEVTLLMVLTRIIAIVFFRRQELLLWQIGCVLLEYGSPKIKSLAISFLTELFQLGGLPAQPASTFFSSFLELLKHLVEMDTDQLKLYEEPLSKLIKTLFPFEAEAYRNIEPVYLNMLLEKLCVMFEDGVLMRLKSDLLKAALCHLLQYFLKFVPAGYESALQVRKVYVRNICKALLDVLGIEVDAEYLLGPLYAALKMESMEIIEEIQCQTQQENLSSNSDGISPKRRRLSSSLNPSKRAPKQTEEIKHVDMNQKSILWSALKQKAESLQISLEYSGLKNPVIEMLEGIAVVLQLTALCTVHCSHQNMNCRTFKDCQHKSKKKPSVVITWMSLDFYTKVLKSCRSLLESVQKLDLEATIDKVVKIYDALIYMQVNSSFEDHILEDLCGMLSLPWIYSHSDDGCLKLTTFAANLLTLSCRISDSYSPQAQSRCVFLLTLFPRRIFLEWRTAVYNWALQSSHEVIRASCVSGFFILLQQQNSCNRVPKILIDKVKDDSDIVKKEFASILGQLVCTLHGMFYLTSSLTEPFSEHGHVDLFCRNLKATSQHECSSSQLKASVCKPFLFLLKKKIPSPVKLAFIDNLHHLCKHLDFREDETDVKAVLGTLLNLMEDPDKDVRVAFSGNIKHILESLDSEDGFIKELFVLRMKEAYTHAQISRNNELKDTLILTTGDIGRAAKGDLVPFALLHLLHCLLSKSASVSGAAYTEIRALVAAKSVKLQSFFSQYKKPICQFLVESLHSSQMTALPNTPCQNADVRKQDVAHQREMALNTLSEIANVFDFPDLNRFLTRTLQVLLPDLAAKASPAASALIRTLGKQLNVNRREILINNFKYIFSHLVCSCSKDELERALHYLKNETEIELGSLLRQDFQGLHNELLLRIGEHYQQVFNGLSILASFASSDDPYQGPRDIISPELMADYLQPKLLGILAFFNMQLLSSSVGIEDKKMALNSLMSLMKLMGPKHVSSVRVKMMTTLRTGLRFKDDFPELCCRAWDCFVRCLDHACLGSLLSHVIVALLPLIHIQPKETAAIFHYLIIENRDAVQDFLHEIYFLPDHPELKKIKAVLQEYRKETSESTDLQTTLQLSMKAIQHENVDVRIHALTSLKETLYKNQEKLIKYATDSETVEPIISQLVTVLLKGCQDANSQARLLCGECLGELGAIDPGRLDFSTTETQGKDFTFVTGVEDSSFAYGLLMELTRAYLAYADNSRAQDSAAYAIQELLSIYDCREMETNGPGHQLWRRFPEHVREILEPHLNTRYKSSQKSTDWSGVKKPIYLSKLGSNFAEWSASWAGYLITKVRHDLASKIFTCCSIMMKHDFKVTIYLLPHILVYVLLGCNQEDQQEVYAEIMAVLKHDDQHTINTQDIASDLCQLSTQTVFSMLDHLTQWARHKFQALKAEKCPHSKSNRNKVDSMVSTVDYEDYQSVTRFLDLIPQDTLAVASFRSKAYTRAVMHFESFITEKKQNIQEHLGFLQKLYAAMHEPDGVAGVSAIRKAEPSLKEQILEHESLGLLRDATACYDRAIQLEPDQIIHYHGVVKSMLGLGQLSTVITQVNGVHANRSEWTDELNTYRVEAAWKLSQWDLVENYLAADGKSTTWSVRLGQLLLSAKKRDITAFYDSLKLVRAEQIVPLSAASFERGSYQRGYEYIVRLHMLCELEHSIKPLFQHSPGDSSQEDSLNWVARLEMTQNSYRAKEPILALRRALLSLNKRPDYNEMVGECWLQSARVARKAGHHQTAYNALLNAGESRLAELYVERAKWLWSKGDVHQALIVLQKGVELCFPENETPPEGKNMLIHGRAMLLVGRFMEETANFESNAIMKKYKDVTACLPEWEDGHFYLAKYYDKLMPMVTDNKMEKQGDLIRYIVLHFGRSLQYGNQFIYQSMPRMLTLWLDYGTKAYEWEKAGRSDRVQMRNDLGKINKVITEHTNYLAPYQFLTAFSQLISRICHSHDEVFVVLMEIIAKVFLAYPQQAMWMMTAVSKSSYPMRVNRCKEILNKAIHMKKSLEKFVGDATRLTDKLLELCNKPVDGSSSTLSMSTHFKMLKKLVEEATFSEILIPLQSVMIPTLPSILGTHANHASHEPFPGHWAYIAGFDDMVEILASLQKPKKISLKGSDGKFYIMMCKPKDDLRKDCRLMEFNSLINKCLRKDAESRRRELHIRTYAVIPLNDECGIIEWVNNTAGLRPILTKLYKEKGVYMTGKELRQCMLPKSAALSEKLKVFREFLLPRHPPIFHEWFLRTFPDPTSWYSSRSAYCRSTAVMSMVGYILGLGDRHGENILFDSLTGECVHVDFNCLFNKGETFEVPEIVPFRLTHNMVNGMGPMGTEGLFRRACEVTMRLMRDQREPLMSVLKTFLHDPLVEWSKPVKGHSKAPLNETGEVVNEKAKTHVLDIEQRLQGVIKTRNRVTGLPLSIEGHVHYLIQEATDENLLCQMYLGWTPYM
ATR enzyme, sequence (Q8WXE1 whole entry partner): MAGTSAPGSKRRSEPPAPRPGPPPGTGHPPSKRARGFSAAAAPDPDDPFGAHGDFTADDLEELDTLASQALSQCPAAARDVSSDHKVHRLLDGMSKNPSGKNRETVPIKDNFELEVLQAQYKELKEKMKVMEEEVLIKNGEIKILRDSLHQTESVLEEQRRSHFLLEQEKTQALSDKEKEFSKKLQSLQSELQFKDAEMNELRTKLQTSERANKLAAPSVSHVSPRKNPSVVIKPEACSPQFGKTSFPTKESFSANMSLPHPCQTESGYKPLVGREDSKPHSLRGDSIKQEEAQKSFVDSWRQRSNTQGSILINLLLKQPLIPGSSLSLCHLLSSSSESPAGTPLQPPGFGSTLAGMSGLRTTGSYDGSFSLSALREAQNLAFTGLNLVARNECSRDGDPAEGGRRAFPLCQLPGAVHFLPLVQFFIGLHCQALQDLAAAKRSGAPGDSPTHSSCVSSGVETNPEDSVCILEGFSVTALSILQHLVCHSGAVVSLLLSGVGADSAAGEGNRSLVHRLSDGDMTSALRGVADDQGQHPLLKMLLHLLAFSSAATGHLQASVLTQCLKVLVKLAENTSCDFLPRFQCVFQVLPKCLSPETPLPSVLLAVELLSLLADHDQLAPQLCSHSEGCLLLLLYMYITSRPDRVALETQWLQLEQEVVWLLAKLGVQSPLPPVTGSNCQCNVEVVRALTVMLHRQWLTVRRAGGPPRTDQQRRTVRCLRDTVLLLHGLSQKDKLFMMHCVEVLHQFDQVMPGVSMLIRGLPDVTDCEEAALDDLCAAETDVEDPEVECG

- IC50 [1]: ≤ 0.01 µM
- IC50 [2]: 0.02 to 0.1 µM
- IC50 [3]: 0.01 to 0.1 µM
SMILES: C[C@@H]1COCCN1c1cc([C@]2(O)C[C@H]3CC[C@@H](C2)O3)c2cnn(-c3ccn[nH]3)c2n1 [RP3500, reference compound]
